For 30 compounds, TGI and GI50 results are on record in PubChem BioAssay (NCI).

The structures appear in SMILES notation.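 48-hour exposure; five concentrations; linearly interpolated endpoints. GI50 marks 50% less growth. TGI: total growth inhibition.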

Common to all, as to assay: DTP human tumour cell line panel, 48 h
For experiment [1], the system named is A498 renal.
Experiment [2] deals with CAKI-1 renal.
For experiment [3], the system named is HT29 colon.
Experiment [4] has as its system MCF7 breast.
For experiment [5], the system named is MDA-N.
Experiment [6] deals with RXF 393 renal.
Experiment [7] deals with SF-295 CNS.
Experiment [8] deals with SK-MEL-28 melanoma.
For experiment [9], the system named is SN12C renal.
Experiment [10] has as its system HOP-92 NSCLC.

Broadly, the TGI is the concentration giving total growth inhibition. A higher TGI goes with lower sensitivity of the cells. For `COc1ccc(CNC(=O)[C@H](Cc2ccc(O)cn2)NC(C)=O)cc1`, the TGI in experiment [1], in experiment [2], in experiment [3], in experiment [4], in experiment [5] and in experiment [6] was greater than 100 µM each time. Further, the TGI in [7], in experiment [8] and in [9] was greater than 100 µM each time.

For the compound `O=C(O)c1ccc(Nc2nc3cc(C(F)(F)F)ccc3nc2-c2ccccc2)cc1`, the TGI is 50.4 µM in experiment [2]; 28.2 µM in experiment [3]; greater than 100 µM in [5]; 81.5 µM in [6]; 27.9 µM in [7]; greater than 100 µM in experiment [8]. Besides, in experiment [9], the TGI came out at 97.6 µM.

Turning to `C=CCn1cnc2c(=O)[nH]c(Nc3ccccc3)nc21`, the TGI in experiment [1], in experiment [2], in experiment [10], in experiment [3], in experiment [4] and in [5] was greater than 100 µM each time. In addition, the TGI in [7], in experiment [8] and in experiment [9] was greater than 100 µM in each case.

For the compound `CC(=O)O[C@@H]1O[Si](C(C)(C)C)(C(C)(C)C)[C@H](C)[C@H]1C`, the TGI in experiment [1] was greater than 100 µM; in [2] it was greater than 100 µM; in experiment [3], 55.6 µM; in experiment [4], 83 µM; in experiment [5], greater than 100 µM; in experiment [7], greater than 100 µM. Moreover, the TGI in experiment [8] and in experiment [9] was greater than 100 µM each time.

In the case of `O=S(=O)(OI(O)CC(F)(F)F)C(F)(F)F`, the TGI in [1], in experiment [2], in [10], in experiment [3], in experiment [4] and in experiment [6] was greater than 100 µM each time. In addition, the TGI in [7], in [8] and in experiment [9] was greater than 100 µM in each case.

As for `COC(=O)c1c(C(=O)OC)c2c3ccccc3n(C)c2c2c1c1ccccc1n2C`, the TGI in experiment [1], in experiment [2], in experiment [10], in [3], in experiment [4] and in experiment [5] was greater than 100 µM in each case. Besides, the TGI in experiment [7], in experiment [8] and in experiment [9] was greater than 100 µM each time.

`OC(c1ccccc1)C(F)(F)c1nc2ccccc2o1` (stereo not drawn): the TGI in experiment [1], in [2], in experiment [10], in experiment [3], in experiment [4] and in experiment [6] was greater than 100 µM in each case. Also, the TGI in [7] and in experiment [8] was greater than 100 µM in each case.

In the case of `CC(=O)Oc1c2oc3cc(O)c(O)cc3c2c(OC(C)=O)c2oc3cc(O)c(O)cc3c12`, the TGI in experiment [2] was 97.2 µM; in experiment [3], 70.9 µM; in experiment [5], greater than 100 µM; in experiment [6] it was 32.6 µM; in [7] it was 30.3 µM; in [8], 41.5 µM. The compound also displayed a TGI in experiment [9] of 58.6 µM.

On to `O=C(O)CCC(NC(=O)c1ccc(CNc2nc3ccccc3nc2C(=O)O)cc1)C(=O)O` (stereo not drawn), for which the TGI in experiment [1], in experiment [3], in [4], in [5], in [7] and in experiment [8] was greater than 100 µM throughout. In experiment [9], the TGI was greater than 100 µM.

For the compound `COc1ccccc1NC(=S)Nc1cc(C)ccn1`, the TGI in experiment [1], in experiment [2], in experiment [3], in [4], in experiment [5] and in experiment [6] was greater than 100 µM each time. Moreover, the TGI in experiment [7], in experiment [8] and in experiment [9] was greater than 100 µM throughout.

As for `CCOC(=O)N1[C@@H]2CCC[C@@H]2C(=O)[C@@H]2CCC[C@@H]21`, the TGI in experiment [1], in experiment [2], in experiment [10], in [3], in [5] and in experiment [6] was greater than 100 µM throughout. Moreover, the TGI in experiment [8] and in [9] was greater than 100 µM in each case.

For `COc1cc(C23OCC(Cc4cc5c(cc42)OCO5)C3CO)cc(OC)c1OC` (stereo not drawn), the TGI in experiment [1] was greater than 100 µM; in [2], greater than 100 µM; in [10] it was greater than 100 µM; in experiment [3], greater than 100 µM; in [4], greater than 100 µM; in experiment [6] it was 8.03 µM. Further, the TGI in experiment [7] is greater than 22.5 µM; in [8] it was greater than 100 µM.

As for `CN(C)c1ccc(C2ON=C(c3ccccc3)N2C23CC4CC(CC(C4)C2)C3)cc1` (stereo not drawn), the TGI in experiment [1], in experiment [2], in experiment [10], in experiment [3], in [5] and in experiment [6] was greater than 10 µM throughout. In addition, the TGI in experiment [7], in experiment [8] and in [9] was greater than 10 µM in each case.

For `CCOC(=O)c1[nH]c2nc(SC)nc(Nc3ccccc3Cl)c2c1N`, the total growth inhibition concentration (TGI) in experiment [1] was 55.9 µM; in experiment [2], greater than 100 µM; in experiment [3], 47.1 µM; in [5] it was greater than 100 µM; in experiment [6], 30.2 µM; in [7], 51.5 µM. Moreover, the TGI in experiment [8] and in experiment [9] was greater than 100 µM throughout.

For the compound `COc1cc2c(c(OC(C)=O)c1OC(C)=O)-c1ccc(SC)c(=O)cc1C(NC(C)=O)CC2` (stereo not drawn), the TGI in [1] was 56.7 µM; in experiment [2], greater than 100 µM; in [10] it was 7.29 µM; in experiment [3] it was greater than 44.8 µM; in experiment [6] it was greater than 100 µM; in experiment [7], 10.1 µM. For the same compound, the TGI in experiment [8] and in experiment [9] was greater than 100 µM in each case.

Consider `N#Cc1c(-c2ccccc2)c(C#N)c(=O)n(C2OC(CO)C(O)C(O)C2O)c1S` (stereo not drawn), for which the TGI in [1], in experiment [2], in [3], in [4], in [5] and in [6] was greater than 100 µM each time. The TGI in experiment [7], in [8] and in experiment [9] was greater than 100 µM in each case.

For `NC(N)=NC(N)=Nc1ccccc1` (tested in a mixture with another compound), the TGI in experiment [1], in [2], in experiment [3], in experiment [4], in experiment [5] and in [6] was greater than 100 µM each time. In addition, the TGI in [7], in [8] and in [9] was greater than 100 µM throughout.

For `CN(C)CCCNC(=O)c1cc(NC(=O)c2cc(NC(=O)[C@@H]3C[C@H]3C(=O)Nc3cc(C(=O)Nc4cc(C(=O)NCCCN(C)C)n(C)c4)n(C)c3)cn2C)cn1C`, the TGI in [2], in experiment [10], in [3], in [4], in experiment [7] and in experiment [8] was greater than 100 µM throughout. The same compound displayed a TGI in experiment [9] greater than 100 µM.

A word on the GI50: it is the concentration giving 50% growth inhibition. In the case of `Cc1ccc(C2CC(c3cccc(Nc4ccncc4)c3)=NN2c2ccccc2)cc1` (stereo not drawn), the GI50 in experiment [1] is 1.86 µM; in [2], 1.61 µM; in experiment [3] it was 2.23 µM; in experiment [6] it was 1.61 µM; in [7], 1.76 µM; in [9] it was 1.69 µM. Also, the TGI in experiment [1] amounted to 5.63 µM; in [2], 3.02 µM; in experiment [3] it was 5.63 µM; in experiment [6] it was 3.02 µM; in experiment [7] it was 3.17 µM; in experiment [9], 3.19 µM.

As to `O=C(O)Cn1c2c(c3c(O)cccc31)C(=O)c1ccccc1-2`, the GI50 in [1], in experiment [2], in experiment [10], in [3], in [4] and in experiment [6] was greater than 100 µM throughout. Further, the GI50 in experiment [7], in experiment [8] and in experiment [9] was greater than 100 µM in each case. Also, the TGI in experiment [1], in [2], in [10], in experiment [3], in experiment [4] and in [6] was greater than 100 µM each time. Further, the TGI in experiment [7], in [8] and in experiment [9] was greater than 100 µM each time.

With `CC(=O)N/C(=C\c1ccc(/C=C(\NC(C)=O)C2=NC3C(=O)c4ccccc4C(=O)C3N2)cc1)C1=NC2C(=O)c3ccccc3C(=O)C2N1` (stereo not drawn), the TGI in experiment [1], in experiment [2], in experiment [10], in experiment [3], in [6] and in experiment [7] was greater than 100 µM each time. For the same compound, the TGI in experiment [8] and in experiment [9] was greater than 100 µM each time.

On to `CC(=O)N=C1N(/C=C2\C(=O)Oc3ccccc3C2=O)C(=O)/C(=C/c2ccccc2Cl)N1C`, for which the TGI in [1] is 96.7 µM; in experiment [2], greater than 100 µM; in [3], greater than 100 µM; in experiment [4], greater than 100 µM; in [5], greater than 100 µM; in [6], greater than 100 µM. The concentration for total growth inhibition (TGI) in experiment [7], in experiment [8] and in experiment [9] was greater than 100 µM in each case.

Consider `CCOC(=O)NC(=S)c1ccc(O)c2ccccc12`, for which the TGI in experiment [1], in experiment [2], in experiment [3], in [4], in experiment [5] and in experiment [7] was greater than 100 µM throughout. The compound further returned a TGI in experiment [8] greater than 100 µM.

With `C[N+](C)([O-])Cc1cc(-c2ccccc2)ccc1O`, the TGI in experiment [1], in [2], in experiment [10], in experiment [3], in [6] and in experiment [7] was greater than 100 µM in each case. In addition, the TGI in [8] and in experiment [9] was greater than 100 µM in each case.

With `CCC1=NC(C(F)(F)F)(C(F)(F)F)N=C(/N=C(/N)N(C)C(C(C)C)P(=O)(OC(C)C)OC(C)C)O1` (stereo not drawn), the TGI in experiment [1], in [2], in [3], in [4], in [5] and in experiment [6] was greater than 100 µM each time. Also, the total growth inhibition concentration (TGI) in experiment [7], in experiment [8] and in experiment [9] was greater than 100 µM each time.

Take `[O-][n+]1c(-c2ccccc2)c2nc3ccccc3nc2c2ccccc21`: the TGI in experiment [1], in experiment [2], in experiment [10], in experiment [3], in [6] and in [7] was greater than 100 µM throughout. Moreover, the TGI in experiment [8] and in experiment [9] was greater than 100 µM in each case.

As to `CCN(CC)CCNc1ccc2nnn3c4ccccc4c(=O)c1c23`, the TGI is 24.2 µM in experiment [1]; greater than 33.7 µM in [2]; 11.7 µM in experiment [10]; 14.2 µM in [3]; 18.5 µM in experiment [6]; 15.3 µM in [7]. Besides, the TGI in experiment [8] was determined as 16 µM; in [9], 33.4 µM.

With `Cc1c2c(ccc3ccccc32)c[n+]2ccccc12`, the TGI in [2] is greater than 100 µM; in [10] it was 90.8 µM; in [3], greater than 100 µM; in [7], 22.5 µM; in experiment [8], 31.1 µM.

`CCN(CC)CCNc1ccc(C)c2sc3ccccc3c(=O)c12`: the TGI in experiment [1] is 8.05 µM; in experiment [2], 8.02 µM; in experiment [3] it was 3.52 µM; in experiment [4], 5.8 µM; in experiment [5], 4.04 µM; in experiment [6], 4.73 µM. For the same compound, the figures for the TGI in experiment [7], in experiment [8] and in experiment [9] were 5.66 µM, 3.51 µM and 12.2 µM, respectively.

For `CCCCCCCCCc1c(O)c(O)c(CCCCCCCCC)c(CCCCCCCCC)c1CCCCCCCCC`, the TGI in [1], in [2], in experiment [3], in experiment [4], in experiment [5] and in [6] was greater than 100 µM throughout. Also, the TGI in [7], in experiment [8] and in experiment [9] was greater than 100 µM each time.
